Test results reported in patent US20260007683A1, “PHARMACEUTICAL COMPOSITIONS COMPRISING HIV INTEGRASE INHIBITORS” (Gilead Sciences, Inc., priority 2024, published 2026).

What was measured:
[1] = Hygroscopicity by dynamic vapor sorption (DVS); type: physicochemical; details: for change of solid form post DVS experiment: after DVS cycle 5-95% RH at 25° C.; for water absorbed (dynamic vapor sorption): up to 95% RH at 25° C.
Description: Hygroscopicity was studied using dynamic vapor sorption (DVS, TA Q5000 SA, TA Instruments, New Castle, DE or DVS, DVS Intrinsic, Surface Measurement Systems, London, UK). A sample (1-20 mg) was placed in an aluminum DVS pan and loaded on the sample side of the twin pan balance. The water sorption and desorption were studied as a function of relative humidity (RH) at 25° C. In 10% RH increments, the relative humidity was increased from 5% RH to 95% RH and then decreased back to 5%. […] Data analysis was performed using Universal Analysis 2000 Version 4.7A (TA Instruments, New Castle, DE) for TA DVS runs and Microsoft Excel for SMS DVS runs.

[2] = Drying of solid form under ambient conditions (form conversion); type: physicochemical
From the text: Compound of Formula I, Form II is a metastable methanol solvated phase. It was isolated when compound of Formula I, Form I was slurried in methanol for about 60 days and identified by x-ray of the wet cake.

| change of solid form post DVS experiment [1] | water absorbed (dynamic vapor sorption) [1] | Compound | form conversion upon drying [2] |
| --- | --- | --- | --- |
| not have changed form | about 0.097% | O=C(NCc1c(F)cc(F)cc1F)c1cn2c(c(O)c1=O)C(=O)N1CCCC[C@H]2C1 [Compound of Formula I, Form I, (7S)-12-hydroxy-1,11-dioxo-N-(2,4,6-trifluorobenzyl)-1,4,5,6,7,11-hexahydro-3H-2,7-methanopyrido[1,2-a][1,4]diazonine-10-carboxamide] | – |
| – | – | O=C(NCc1c(F)cc(F)cc1F)c1cn2c(c(O)c1=O)C(=O)N1CCCC[C@H]2C1 [Compound of Formula I, Form II, (7S)-12-hydroxy-1,11-dioxo-N-(2,4,6-trifluorobenzyl)-1,4,5,6,7,11-hexahydro-3H-2,7-methanopyrido[1,2-a][1,4]diazonine-10-carboxamide] | convert to compound of Formula I, Form III |
| not have changed form | about 0.87% | O=C(NCc1c(F)cc(F)cc1F)c1cn2c(c(O)c1=O)C(=O)N1CCCC[C@H]2C1 [Compound of Formula I, Form III, (7S)-12-hydroxy-1,11-dioxo-N-(2,4,6-trifluorobenzyl)-1,4,5,6,7,11-hexahydro-3H-2,7-methanopyrido[1,2-a][1,4]diazonine-10-carboxamide] | – |
| not have changed form | about 3.5% | O=C(NCc1c(F)cc(F)cc1F)c1cn2c(c(O)c1=O)C(=O)N1CCCC[C@H]2C1 [Compound of Formula I, Form IV, (7S)-12-hydroxy-1,11-dioxo-N-(2,4,6-trifluorobenzyl)-1,4,5,6,7,11-hexahydro-3H-2,7-methanopyrido[1,2-a][1,4]diazonine-10-carboxamide] | – |
